Reference: patent US9186390B2, “Methods and uses of TIE2 binding and/or activating agents” (Sunnybrook Health Sciences Center, priority 2010, dated 2015)
Entries after “also recorded” stand apart in the source; their conditions may differ.

Key:
[1] = biological target: T1, Tie2 receptor (Mus musculus, UniProt Q02858); assay: Tie2 activation in vivo (Tie2 immunoprecipitation from lung lysates, pY Tie2 western blot); set-up: species or system CD1 mice; settings: for time points at which activation of Tie2 (pY Tie2) was evident: pooled lung lysates of three mice
T1 construct: from tissue; host or cells: lung of CD1 mice (in vivo dosing, lung homogenate)
Procedure: The following commercially available antibodies were used: monoclonal anti-Tie2 (Phaminogen), polyclonal anti-Tie2 (Santa Cruz Biotechnology) and monoclonal anti-pY (clone 4G10, Upstate Biotechnology). Lung lysates were prepared and immunoprecipitated in full RIPA buffer (50 mM Tris-HCl, pH 7.4, 150 mM NaCl, 1 mM PMSF, 1 mM EDTA, 5 μg/ml Aprotinin 5 μg/ml Leupeptin, 1% Triton x-100, 1% Sodium deoxycholate, 0.1% SDS). Proteins were resolved in 10% PAGE according to Laemlli and transferred to PVDF membrane for subsequent antibody probing.
Purified Vasculotide was examined for its ability to activate the Tie2 receptor tyrosine kinase in CD1 mice (FIG. 1A). Three mice per group were injected intraperitoneally (IP) with either Vasculotide (500 ng-12.5 μg) or vehicle (PBS) control. After one hour, mice were sacrificed and lung homogenates were prepared for immunoblot analysis. […] This effect is particularly evident when total protein loading is accounted for (see pan Tie2, lower panel). While this may seem somewhat paradoxical, this phenomenon has also been reported by others while investigating the effect of Ang1 on Tie2 activation (Brkovic et al. (2007) J. Leukoc. Biol. 81(4), 1093-1101), Sturn et al. (2005) Microcirculation 12(5), 393-403, Murdoch et al. (2007) J Immunol 178(11), 7405-7411, van der Geer et al. (1994) Ann. Rev. Cell Biol. 10, 251-337, Gruber et al. (1995) Blood 86(7), 2488-2493, Maliba et al. (2008) J. Leukoc. Biol. 83(2), 352-360, and Van Slyke et al. (2009) Tissue Eng. Part A 15(6), 1269-1280).
To assess the duration of Tie2 activation following Vasculotide administration, three mice per time point were injected with 2 μg intraperitoneally (I.P.) or by gavage (P.O.). Lung lysates were prepared from each of the mice at the indicated times following initial dosing (FIG. 1B). Equal quantities of protein from each group were pooled and immunoprecipitated for Tie2 to establish an average Tie2 activation for each group. Activation of Tie2 (see pY Tie2, upper panels) was evident at time points ranging from 24-72 hours in the I.P. injected mice. By 96 hours post injection, the Tie2 receptor phosphorylation had returned to basal (PBS stimulated) levels.

[2] = system: chronic asthma mice; assay: Chronic asthma model (ovalbumin sensitization, nebulized challenge, d42 / d62); format: in vivo, Balb/c mice
Procedure: (Chronic asthma model) Seven week old female Balb/c mice were injected intraperitoneally (IP) with 20 μg of chicken ovalbumin (OVA) absorbed with 1 mg aluminum hydroxide, an adjuvant known to promote the development of a Th2 response by the immune system, on day 0 (denoted by first day injection) and day 7. Full body inhaled exposure to OVA was initiated at day 21. Briefly, these treatments utilized an InExpose full body aerosol chamber (Scireq, Montreal, Canada) where a 1% OVA solution, suspended in PBS, pH 7.45, was nebulized at 0.2 mL/min with a filtered room air flow rate of 2400 mL/min for a total period of 30 minutes, 3 times a week for either 42 (FIG. 13A) or 62 days (FIG. 13B). (Acute asthma model) Seven week old female Balb/c mice were injected intraperitoneally with 50 μg of chicken OVA absorbed with 1 mg aluminum hydroxide on day 0 (denoted by first day injection) and day 7. Aqueous OVA ([…] in PBS) was delivered intranasally daily from day 20 to day 24 (FIG. 2), Vasculotide or saline vehicle (control, PBS) was delivered to the mice via IP injections.
Blood was collected from the left ventricle of anaesthetized mice into heparinized 1 cc syringes. Following collection, blood was placed into Li-heparin microtubes. Subsequently, the tubes were centrifuged at 3000 RPM for 15 minutes at 4° C. Plasma was collected from the top of the samples and frozen at −80° C. for later analysis. The remaining buffy coat and red blood cells were lysed then fixed in 1× lyse/fix buffer (BD Biosciences, Mississauga, Canada) according to manufacturer's instructions.
Twenty-four hours after last aerosol exposure and immediately following exsanguinations, tissue was dissected from neck to expose trachea. A small lateral incision was made in the trachea to allow passage of 23 gauge lavage catheter into trachea. The catheter, attached to a 3 cc syringe containing warmed Hanks buffer, was carefully passed into the lumen of the trachea. A suture was secured around the trachea with a knot to secure the catheter in place. Buffer (1 cc) was injected slowly into the lungs and fully aspirated three times. The volume of recovered buffer was recorded for each animal to facilitate calculation of BAL infiltrate.
Analysis of plasma samples generated for the asthma study was the same as that outlined for the atopic dermatitis study with one small modification. Plasma from mice used in the asthma study was diluted 1:4 instead of 1:8 for the atopic dermatitis samples.
(BAL analysis) Collected BAL fluid was centrifuged at 1000 RPM for 10 minutes at 4° C. BAL fluid was removed and collected for subsequent CBA analysis. The BAL cell pellet was lysed/fixed in 1× lyse/fix buffer according to manufacturer's instructions (BD Biosciences, Mississauga, Canada). The total number of cells contained in each sample was determined by flow cytometry using flow-set beads (Count Bright Beads, Invitrogen), to facilitate sample volume and cell count calculations. A total of 7000 beads were counted for each sample. Flow cytometry analysis was gated on FSC/SSC to eliminate debris and dead cells. Differential cell count analysis was also performed by FACS where surface marker antibodies were used as follows: eosinophils (SSC^hi FITCmed Ige^med), neutrophils (SSC^med FITC^hi Ige^med), monocytes (SSC^med CD11b^+ CD115^+) and lymphocytes (SSC^lo and CD4^+ or CD8^+). In addition to monocyte markers (SSC^med CD11b^+ CD115^+), these cell populations were further characterized using antibodies specific for Tie2, TLR4, and Ly6C. Ly6C^low and Ly6C^high further define monocytes as classical, resident monocytes or inflammatory monocytes, respectively. Identified neutrophils were further labelled with antibodies to Tie2 and TLR4. All cell suspensions were incubated with purified anti-CD16/CD32 mAb (BD Biosciences, Mississauga, ON, Canada) to block non-specific background caused by Fc receptors, followed by incubation with the specific antibodies. […]

[3] = chronic asthma, sustained effect

T1 sequence (Q02858 23-1122): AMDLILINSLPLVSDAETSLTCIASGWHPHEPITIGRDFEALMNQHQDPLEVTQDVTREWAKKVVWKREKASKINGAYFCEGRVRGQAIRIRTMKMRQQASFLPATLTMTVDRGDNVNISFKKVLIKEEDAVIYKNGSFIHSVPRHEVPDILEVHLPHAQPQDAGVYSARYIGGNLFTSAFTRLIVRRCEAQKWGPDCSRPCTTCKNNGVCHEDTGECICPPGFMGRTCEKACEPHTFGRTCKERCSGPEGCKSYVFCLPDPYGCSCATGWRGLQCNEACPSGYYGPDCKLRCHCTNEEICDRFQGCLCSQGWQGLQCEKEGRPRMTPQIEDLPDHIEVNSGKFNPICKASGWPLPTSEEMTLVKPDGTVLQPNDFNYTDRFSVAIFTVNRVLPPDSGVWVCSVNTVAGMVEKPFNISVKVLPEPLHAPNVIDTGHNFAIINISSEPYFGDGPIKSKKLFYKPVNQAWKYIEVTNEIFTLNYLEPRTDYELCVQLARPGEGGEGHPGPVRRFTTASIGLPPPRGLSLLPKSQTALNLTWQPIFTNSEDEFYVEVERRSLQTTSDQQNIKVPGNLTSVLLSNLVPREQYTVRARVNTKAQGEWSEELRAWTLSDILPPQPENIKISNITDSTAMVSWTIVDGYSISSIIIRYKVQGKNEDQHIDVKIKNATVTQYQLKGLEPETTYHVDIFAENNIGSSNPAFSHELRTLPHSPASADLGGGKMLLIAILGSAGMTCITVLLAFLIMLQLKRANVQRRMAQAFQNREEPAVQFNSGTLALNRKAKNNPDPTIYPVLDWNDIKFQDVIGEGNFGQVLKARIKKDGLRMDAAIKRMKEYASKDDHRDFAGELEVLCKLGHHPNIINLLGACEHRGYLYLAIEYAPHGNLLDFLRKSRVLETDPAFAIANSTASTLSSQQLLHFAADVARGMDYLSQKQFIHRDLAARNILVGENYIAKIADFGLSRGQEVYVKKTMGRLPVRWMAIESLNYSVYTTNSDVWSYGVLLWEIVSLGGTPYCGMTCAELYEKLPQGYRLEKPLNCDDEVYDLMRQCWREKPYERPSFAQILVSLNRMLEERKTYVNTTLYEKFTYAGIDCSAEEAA

Vasculotide: Modified T7 peptide (CHHHRHSF, SEQ ID NO:2) conjugated to 10 kDa tetrameric polyethylene glycol-maleimide; Tie2 binding peptide mimetic
time points at which activation of Tie2 (pY Tie2) was evident ([1]; 2 μg I.P.): 24-72 hours | time points at which activation of Tie2 (pY Tie2) was evident ([1]; 2 μg I.P., listed as Vasc-PEG): at least 72 hours | time by which Tie2 receptor phosphorylation had returned to basal (PBS stimulated) levels ([1]; 2 μg I.P., post injection): 96 h | Tie2 phosphorylation after gavage (oral availability) ([1]; 2 μg P.O., two hours post gavage): did not yield increased activation | Tie2 receptor-activating activity at higher doses ([1]; I.P. doses above 500 ng up to 12.5 μg, 1 hour): reduced receptor-activating activity | dose that activated Tie2 optimally (pY Tie2) ([1]; I.P., 1 hour in circulation, lung homogenates, doses 500 ng-12.5 μg): 500 ng/25-30 g mouse | Tie2 levels in BAL neutrophils ([2]; asthmatic mice, flow cytometry): unchanged | BAL neutrophil count ([2]; chronic asthma, d42): unchanged | BAL eosinophil numbers ([2]; chronic asthma, d42 and d62): significantly decreased; also recorded: statistical reduction | BAL monocyte infiltration / absolute number of monocytes ([2]; chronic asthma, d42 and d62): significantly decreased; also recorded: statistical reduction | inflammatory monocytes (Ly6C+) in BAL ([2]; chronic asthma, d42 and d62): decreased | absolute number of peripheral blood mononuclear cells ([2]; chronic asthma, d42 or d62, did not reach significance): clear trend toward a reduction | BAL neutrophil count ([2]; chronic asthma, d62): slight increase | BAL neutrophil count ([2]; chronic asthma, d62, listed as Vsaculotide): very small increase | BAL lymphocytes ([2]; chronic asthma, day 42 and day 62): statistical reduction | plasma IL-5 (cytometric bead array) [2, 3]: decreasing | plasma RANTES (cytometric bead array) [2, 3]: decreasing | plasma TNF (cytometric bead array) [2, 3]: decreasing | reduction of total absolute BAL counts ([2]; d42 chronic asthma model, systemic (IP) treatment, flow cytometry): 45% | TLR4 expression on BAL eosinophils (mean fluorescence intensity) ([2]; d42 chronic asthma, PBS 166): 758 MFI | cell surface level of Tie2 on BAL eosinophils (mean fluorescence intensity) ([2]; d42 chronic asthma, PBS 566): 205 MFI | decrease in lung collagen deposition (Masson's trichrome, % blue positive area) ([2]; d62 chronic asthma, vs PBS): 4 fold | TLR4 expression on BAL eosinophils (mean fluorescence intensity) ([2]; d62 chronic asthma, PBS 118): 132 MFI
